Read-outs that look alike come from different tables or passages of the source.
Tested on: ring stage parasites
Assay: Parasite growth potency assay, 72 hours, LDH readout
Assay type: cell-based
Conditions: parasite growth measured by LDH assay after 72 hours at 37° C., 0.7% rings, 2% haematocrit, read-out: EC50
Outline: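 Parasite growth was quantified by LDH assay after a −80 °C freeze-thaw. Before that, compound was incubated for 72 h at 37 °C under humidified gas with ring-stage cultures adjusted to 0.7% parasitemia and 2% haematocrit in serum- and albumax-supplemented RPMI-Hepes.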

SMILES	EC50 [nM]	EC50 (72 h) [nM]
COCC[C@H](c1cccc(C(=O)N[C@@H]2c3ccccc3C[C@]2(C)O)c1)N1C(=N)NC(C)(C)CC1=O [Example 166B, N-[(1R,2S)-2-hydroxy-2-methyl-indan-1-yl]-3-[(1R)-1-(2-imino-4,4-dimethyl-6-oxo-hexahydropyrimidin-1-yl)-3-methoxy-propyl]benzamide]	17.6	
COCC[C@H](c1cccc(C(=O)N[C@@H]2c3ccccc3C3(CC3)[C@H]2O)c1)N1C(=N)NC(C)(C)CC1=O [Example 167, [1-[(1R)-1-[3-[(2′-hydroxyspiro[cyclopropane-1,3′-indane]-1′-yl)carbamoyl]phenyl]-3-methoxy-propyl]-4,4-dimethyl-6-oxo-hexahydropyrimidin-2-ylidene]ammonium; 2,2,2-trifluoroacetate]		3.1
CCC1(C)CC(=O)N([C@H](CCOC)c2cccc(C(=O)N[C@@H]3c4ccccc4C4(CC4)[C@H]3O)c2)C(=N)N1 (stereo partly drawn) [Example 168, [4-ethyl-1-[(1R)-1-[3-[(2′-hydroxyspiro[cyclopropane-1,3′-indane]-1′-yl)carbamoyl]phenyl]-3-methoxy-propyl]-4-methyl-6-oxo-hexahydropyrimidin-2-ylidene]ammonium; 2,2,2-trifluoroacetate]		1.4
COCC[C@H](c1cc(F)cc(C(=O)N[C@@H]2c3ccccc3C[C@H]2O)c1)N1C(=N)NC(C)(C)CC1=O [Example 169, [1-[1-[3-fluoro-5-[[(1R,2R)-2-hydroxyindan-1-yl]carbamoyl]phenyl]-3-methoxy-propyl]-4,4-dimethyl-6-oxo-hexahydropyrimidin-2-ylidene]ammonium; 2,2,2-trifluoroacetate]		4.7
CCC1(CC)CC(=O)N([C@H](CCOC)c2cccc(C(=O)N[C@@H]3c4cc(F)ccc4C[C@H]3O)c2)C(=N)N1 [Example 170, [4,4-diethyl-1-[(1R)-1-[3-[(6-fluoro-2-hydroxy-indan-1-yl)carbamoyl]phenyl]-3-methoxy-propyl]-6-oxo-hexahydropyrimidin-2-ylidene]ammonium; 2,2,2-trifluoroacetate]		0.7
CCOCC[C@H](c1cccc(C(=O)N[C@@H]2c3ccccc3C[C@H]2O)c1)N1C(=N)NC(C)(C)CC1=O [Example 171, [1-[3-ethoxy-1-[3-[[(1R,2R)-2-hydroxyindan-1-yl]carbamoyl]phenyl]propyl]-4,4-dimethyl-6-oxo-hexahydropyrimidin-2-ylidene]ammonium; 2,2,2-trifluoroacetate]		5.2
CC[C@@]1(C)CC(=O)N([C@H](CCOC(F)F)c2cccc(C(=O)N[C@@H]3c4ccccc4C[C@H]3O)c2)C(=N)N1 [Example 172, [(4S)-1-[3-(difluoromethoxy)-1-[3-[[(1R,2R)-2-hydroxyindan-1-yl]carbamoyl]phenyl]propyl]-4-ethyl-4-methyl-6-oxo-hexahydropyrimidin-2-ylidene]ammonium; 2,2,2-trifluoroacetate]		1.7
COCC[C@H](c1cc(F)cc(C(=O)N[C@H]2CC(C)(C)Oc3ccccc32)c1)N1C(=N)NC(C)(C)CC1=O [Example 173, [1-[1-[3-[[(4S)-2,2-dimethylchroman-4-yl]carbamoyl]-5-fluoro-phenyl]-3-methoxy-propyl]-4,4-dimethyl-6-oxo-hexahydropyrimidin-2-ylidene]ammonium; 2,2,2-trifluoroacetate]		1
COCC[C@H](c1cc(F)cc(C(=O)N[C@@H]2c3ccccc3OC(C)(C)[C@H]2O)c1)N1C(=N)NC(C)(C)CC1=O [Example 174, [1-[1-[3-fluoro-5-[[(3S,4R)-3-hydroxy-2,2-dimethyl-chroman-4-yl]carbamoyl]phenyl]-3-methoxy-propyl]-4,4-dimethyl-6-oxo-hexahydropyrimidin-2-ylidene]ammonium; 2,2,2-trifluoroacetate]		0.9
COCC[C@H](c1cc(F)cc(C(=O)N[C@@H]2c3ccccc3C[C@@]2(C)O)c1)N1C(=N)NC(C)(C)CC1=O [Example 175A, 3-fluoro-N-[(1R,2R)-2-hydroxy-2-methyl-indan-1-yl]-5-[1-(2-imino-4,4-dimethyl-6-oxo-hexahydropyrimidin-1-yl)-3-methoxy-propyl]benzamide]	37.1	
